This is an account of results in patent publication US12121530B2, “Composition and methods for treating articulating joint disorders with nucleoside reverse transcriptase inhibitors” (RHODE ISLAND HOSPITAL, priority 2018, dated 2024).

Series [1] relates to HIV patients. The series can be described thus: summary data of NRTI on OA in HIV patients. Type of series: in vivo, human. As to conditions: for expanded OA (ICD-9-CM 715, 716 or 719) / strict OA (ICD-9-CM 715): HIV patients; for strict OA (ICD-9-CM 715): older than 50, dosage dependent, both male and female. From the text:
Medical provider diagnoses of ICD-9-CM 715 [osteoarthrosis and allied disorders] include the following definitions: 1) strict=ICD-9-CM 715; 2) expanded=ICD-9-CM 715, 716 [other and unspecified arthropathies], OR 719 [other and unspecified disorders of joint]); and 3) probable=strict OR expanded+respondent-reported prior diagnosis of OA or other arthritis excluding rheumatoid arthritis (RA).

For series [2], the system named is Line-1. Briefly: siRNA against Line-1 in mouse primary chondrocytes, RT-qPCR. Particulars: for Line-1 expression: siRNA screening, versus scramble siRNA. Type of series: cell-based. The procedure:
Cells were seeded onto desired size plates to reach 70-90% confluence and transfected with miR-365 mimic or miRNA mimic negative control or miR-365 inhibitor or inhibitor negative control (Dharmacon®, Lafayette, Colo., USA). Lipofectamine 3000 (Invitrogen®, Waltham, Mass., USA) was used as transfection reagents. Medium is changed 24 hrs after transfection. 48 hrs post transfection, cells were lysated in either QIAzol for RNA purification and real-time PCR analysis or ice-cold lysis buffer containing protease inhibitor and phosphatase inhibitor for western blot analysis. MiR-365 mimic, miRNA mimic negative control, miR-365 inhibitor and inhibitor negative control were typically used at a final concentration of 25 nM unless otherwise stated.
Both miRNA and mRNA were extracted using miRNeasy Mini Kit (Qiagen®, Germantown, Md., USA) and reversely transcribed using miScriptIIRT Kit (Qiagen®, Germantown, Md., USA) according to manufacturer's instruction. qPCR was performed using SYBR Green PCR master mix (Qiagen®, Germantown, Md., USA) on a Bio-Rad CFX96 real-time PCR detection system (Bio-Rad®, Hercules, Calif., USA). Amplification conditions are as follows: 95° C. for 10 min, 40 cycles of 95° C. for 10″, 55° C. for 30″, and 72° C. for 30″. 18S ribosomal or GAPDH RNA was used as an internal control gene to normalize the mRNAs level. The ubiquitously expressed snRNA U6 was used as an endogenous control for miRNAs level. Primers were synthesized by Integrated DNA Technologies (http://www.idtdna.com). The primers for miR-365 were purchased from Qiagen. Fold changes of mRNA and miRNAs were calculated by the 2^^(ΔΔCt) method and normalized to 18S/GAPDH or U6 snRNA, respectively.
(In general: Real-time PCR tracks product formation cycle by cycle.)

[3] abbreviates: mouse PC transfected with miR-365 mimic.

On to `Cc1cn([C@H]2C[C@H](N=[N+]=[N-])[C@@H](CO)O2)c(=O)[nH]c1=O` [ZDV, Zidovudine], for which, in series [1], the “expanded OA (ICD-9-CM 715, 716 or 719)” value is “partially inhibiting” and the “strict OA (ICD-9-CM 715)” value is reported as “inhibiting”.

Regarding “siLine-1E: siRNA against Line-1, AAGTTTCTGCAAGGCAAAAGA (SEQ ID NO: 97) (AAGTTTCTGCAAGGCAAAAGA; listed as DNA, chemistry not given here)”, the Line-1 expression entry in series [2] is on record as “significantly suppressed”.

Consider `O=c1nc[nH]c2c1ncn2[C@H]1CC[C@@H](CO)O1` [DDL, 2′,3′-dideoxyinosine], for which, in series [1], the “expanded OA (ICD-9-CM 715, 716 or 719)” value is “inhibiting” and the “strict OA (ICD-9-CM 715)” value was “inhibiting”. The toxicity result in series [1] (group of less than 40 years old) is recorded as “No toxicity”.

On to `Cc1cn([C@H]2C=C[C@@H](CO)O2)c(=O)[nH]c1=O` [D4T, 2′,3′-didehydro-2′,3′-dideoxythymidine], for which, in series [1], the “expanded OA (ICD-9-CM 715, 716 or 719)” value is on record as “inhibiting” and the “strict OA (ICD-9-CM 715)” value is given as “inhibiting”. The “extent of inhibition of strict OA and expanded OA” value in series [1] (among NRTIs) is on record as “highest extent of inhibition”.

`Nc1nc(NC2CC2)c2ncn([C@H]3C=C[C@@H](CO)C3)c2n1` [ABC, abacavir]: the “strict OA (ICD-9-CM 715)” value in series [1] is given as “inhibiting”.

For the molecule “siLine-1C: siRNA against Line-1, AAGCCACTATTACTCTGATAC (SEQ ID NO: 95) (AAGCCACTATTACTCTGATAC; listed as DNA, chemistry not given here)”, the Line-1 expression entry in series [2] is “significantly suppressed”.

On to “siLine-1D: siRNA against Line-1, AAGGTCAAATCTAAGTGGATC (SEQ ID NO: 96) (AAGGTCAAATCTAAGTGGATC; listed as DNA, chemistry not given here)”, for which the “miR-365-elicited gene expression changes (L1, Adamts5, Mmp3, Ihh, Col2a1, Acan)” value in series [2] (co-transfected with miR-365 (FIG. 1D-1I)) was “abolished”. Besides, in series [2] (setting [3]), the “miR-365 led induction of Ihh” value was “successfully rescued” and the “miR-365 led induction of Line-1” value was “successfully rescued”. Besides, the Line-1 expression result in series [2] is recorded as “significantly suppressed”.
